The values that follow come from patent US20260373266A1, “PROTEIN DEGRADERS AND USES THEREOF” (KYMERA THERAPEUTICS, INC., priority 2022, published 2026).

Where only a bound is given, the exact number is not on record here.

For one assay, the target named is T1, DCAF1 WD40 domain (residues 1077-1390) (Homo sapiens, UniProt Q9Y4B6).
T1 construct: DCAF1 WD40 domain (residues 1077-1390)
T1 sequence (Q9Y4B6 1077-1390): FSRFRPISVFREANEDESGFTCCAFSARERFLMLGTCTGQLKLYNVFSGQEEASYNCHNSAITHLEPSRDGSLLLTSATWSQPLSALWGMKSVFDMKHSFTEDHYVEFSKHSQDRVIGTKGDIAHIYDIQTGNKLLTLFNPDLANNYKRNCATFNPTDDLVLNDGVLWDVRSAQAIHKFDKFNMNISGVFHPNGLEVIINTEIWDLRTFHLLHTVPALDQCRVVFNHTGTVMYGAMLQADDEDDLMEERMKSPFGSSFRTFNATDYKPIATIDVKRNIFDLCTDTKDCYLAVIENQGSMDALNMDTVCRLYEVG
The assay is described as follows: DCAF1 binding assay by SPR (Biacore 8K+), DCAF1-3 KD. As to conditions: 25 °C, read-out: DCAF1-3 SPR (KD).
Turning to `Nc1ncc(N[C@@H]2CCCN(c3cccc(F)c3)C2)cc1N1CCOCC1` [I-546], the Kd is less than 10 µM.

On to `COc1ncccc1-c1[nH]ncc1C(=O)N[C@@H](CC(N)=O)c1cccc(Cl)c1` [I-504], for which the dissociation constant (Kd) was more than 200 µM. On the same count and under the same terms, the figure for `NC(=O)CCN(c1cc(N2CCOCC2)ccn1)[C@@H]1CCCN(c2cccc(F)c2)C1` [I-291] is more than 200 µM. On the same count and under the same terms, the figure for `O=c1[nH]cc(N2CCOCC2)cc1N[C@@H]1CCCN(c2cccc(F)c2)C1` [I-533] is less than 10 µM; for `C=CC(=O)N1C[C@H](c2ccc(Br)cc2)[C@@H]1C(=O)Nc1cccc2cccnc12` [I-517] it is more than 200 µM. As to `COC(=O)c1nc(N2CCC[C@@H](Nc3cc(N4CCOCC4)ccn3)C2)ccc1C` [I-781], the Kd is 10 to 100 µM. On the same count and under the same terms, the figure for `Fc1cccc(N2CCNC(Cc3cc(N4CCOCC4)ncn3)C2)c1` (stereo not shown) [I-225] is more than 200 µM. In the case of `CC(C)c1cccc(-c2[nH]ncc2C(=O)N[C@@H](CC(N)=O)c2cccc(Cl)c2)c1F` [I-563], the Kd lay within 10 to 100 µM.

Consider `NC(=O)C[C@H](NC(=O)c1c[nH]nc1-c1cccc2nc[nH]c12)c1cccc(Cl)c1` [I-355], for which the Kd is 10 to 100 µM. On the same count and under the same terms, the figure for `COCCOCC[C@H]1CCCN(c2ccnc(N3CC[C@H]4[C@@H]3CCCN4c3cccc(F)c3)c2)C1` [I-715] is less than 10 µM; for `c1cc2cc(N3CCC[C@@H](Nc4cc(N5CCOCC5)ncn4)C3)ccc2cn1` [I-401] it is more than 200 µM; for `Cc1cccc(-c2[nH]ncc2C(=O)N[C@@H](CC(N)=O)c2cccc(Cl)c2)c1` [I-102] it is 10 to 100 µM.

With `NCCCCCCCCCCCCCCCCCC1CCN(c2ccnc(N3CC[C@@H]4[C@H]3CCCN4c3cccc(F)c3)c2)CC1` [I-719], the Kd was more than 200 µM. Still for that read-out and setting: the figure for `N#Cc1ncccc1N1CCC[C@@H](Nc2cc(N3CCOCC3)ccn2)C1` [I-424] is more than 200 µM; for `NC(=O)C[C@@](NC(=O)c1c[nH]nc1-c1ccccc1F)(C(=O)O)c1cccc(Cl)c1` [I-294] it is more than 200 µM; for `Fc1cccc(N2CCC[C@@H](Nc3cc(N4Cc5ccccc5C4)ccn3)C2)c1` [I-554] it is 10 to 100 µM. On the same count and under the same terms, with `NCCNc1ccc(C2CCCCC2)cc1N[C@@H]1CCCN(c2cccc(F)c2)C1` [I-979] the figure was 10 to 100 µM. Regarding `N#Cc1cccc([C@H](CC(N)=O)NC(=O)c2c[nH]nc2-c2ccccc2F)c1` [I-117], the Kd lay in the range of 10 to 100 µM. Same read-out and setting: the figure for `c1ccc(N2CCC[C@@H](Nc3cc(N4CCOCC4)ccn3)C2)cc1` [I-75] is 10 to 100 µM; for `Fc1cccc(N2CCC[C@H](Cc3cc(N4CCOCC4)[nH]n3)C2)c1` [I-632] it is more than 200 µM.

Take `N#Cc1cccc(N2CCC[C@@H](Nc3cc(N4CCOCC4)ccn3)C2)c1` [I-771]: the Kd is more than 200 µM. Consider `c1cc2cc(N3CCC[C@@H](Nc4nccc(N5CCOCC5)n4)C3)ccc2cn1` [I-33], for which the Kd is more than 200 µM. Take `Fc1cccc(N2CCC[C@H](N3CCc4c(N5CC6CC(C6)C5)ccnc43)C2)c1` [I-840]: the Kd is more than 200 µM.

Turning to `c1cc(N2CCOCC2)cc(N[C@@H]2CCCN(c3ncnc4c3ncn4[C@@H]3CCCCO3)C2)n1` [I-684], the Kd is 10 to 100 µM. `C[C@H]1[C@@H](O)CCCN1c1ccnc(N2CC[C@@H]3[C@H]2CCCN3c2cccc(F)c2)c1` [I-833]: the Kd is less than 10 µM. On the same count and under the same terms, with `OC1(C2CCCCC2)CCC[C@@H](Nc2cc(N3CCCCC3)ccn2)C1` (stereo partly shown) [I-804] the figure was 10 to 100 µM; with `CNC(=O)C[C@H](NC(=O)c1c[nH]c(C(=O)COCCOCCOCCOCCOCCN)c1-c1c(F)ccc(F)c1C)c1cccc(Cl)c1` [I-820], less than 10 µM.

In the case of `NC(=O)C[C@H](NC(=O)c1cn[nH]c1-c1ccc(O)cc1)c1cccc(Cl)c1` [I-333], the Kd was in the range of 10 to 100 µM. Still for that read-out and setting: the figure for `Cc1c(F)ccc(F)c1-c1[nH]ncc1C(=O)N[C@@H](CC(=O)N1CCC(O)C1)c1cccc(Cl)c1` (stereo partly shown) [I-883] is less than 10 µM; for `NC(=O)C[C@H](NC(=O)c1n[nH]cc1-c1ccccc1F)c1cccc(Cl)c1` [I-100] it is 10 to 100 µM; for `Oc1cccc(N2CCC[C@@H](Nc3cc(N4CCOCC4)ncn3)C2)c1` [I-13] it is more than 200 µM. As to `C[C@H]1CCCCN1c1ccnc(N2CC[C@H]3[C@@H]2CCCN3c2cccc(F)c2)c1` [I-644], the Kd was in the range of 10 to 100 µM. The same measure, in the same setting: with `Fc1cccc(N2CC[C@@H](Nc3cc(N4CCOCC4)ncn3)C2)c1` [I-217] the figure was more than 200 µM; with `NC(=O)C[C@H](NC(=O)c1n[nH]c2c1CNCC2)c1cccc(Cl)c1` [I-298], more than 200 µM.

As to `Cc1cc(CCCOCCOCCOCCOCCOCCN)cc(F)c1-c1c(C(=O)N[C@@H](CC(N)=O)c2cccc(Cl)c2)c[nH]c1C#N` [I-918], the equilibrium dissociation constant (Kd) is less than 10 µM. Same read-out and setting: the figure for `Fc1cccc(N2CCC[C@@H](Nc3ccnc(N4CCOCC4)c3)C2)c1` [I-18] is more than 200 µM; for `c1cc(N2CCOCC2)cc(NC2CCCN(c3cnn[nH]3)C2)n1` (stereo not shown) [I-486] it is more than 200 µM; for `OC1CCCN(c2ccnc(N[C@@H]3CCCN(c4cccc(F)c4)C3)c2)C1` (stereo partly shown) [I-701] it is less than 10 µM. On the same count and under the same terms, with `Fc1cccc(N2CCC[C@@H](Nc3cc(N4CCC5CCC4C5)ccn3)C2)c1` (stereo partly shown) [I-640] the figure was 10 to 100 µM. On the same count and under the same terms, the figure for `Oc1ccc(N2CCC[C@@H](Nc3cc(N4CCCCC4)ccn3)C2)cc1F` [I-716] is 10 to 100 µM. Regarding `CC(C)CNc1ccc(N2CCC[C@@H](Nc3cc(N4CCOCC4)ccn3)C2)cc1` [I-693], the dissociation constant Kd was 10 to 100 µM. The same measure, in the same setting: the figure for `Cc1c(F)ccc(F)c1-c1c(C(=O)N[C@@H](CC(N)=O)c2cccc(Cl)c2)c[nH]c1C(=O)c1cccc(C(C)C)c1` [I-739] is less than 10 µM; for `NC(=O)C[C@H](NC(=O)c1c[nH]nc1-c1cc(C(=O)O)ccc1F)c1cccc(Cl)c1` [I-523] it is 10 to 100 µM; for `O=[N+]([O-])c1ccc(N2CCC[C@@H](n3ccc4c(N5CCCCC5)ccnc43)C2)cc1F` [I-917] it is less than 10 µM. On to `C=CC(=O)NCCCN1CCN(c2ccnc3c2CCN3C2CCCN(c3cccc(F)c3)C2)CC1` (stereo not shown) [I-845], for which the Kd lay in the range of 10 to 100 µM. On the same count and under the same terms, the figure for `C=CC(=O)NCCCCN1CCN(c2ccnc(N(CCCOCCOCCOCCOCCNC(=O)C[C@@H]3N=C(c4ccc(Cl)cc4)c4c(sc(C)c4C)-n4c(C)nnc43)[C@@H]3CCCN(c4cccc(F)c4)C3)c2)CC1` [I-906] is 100 to 200 µM; for `COc1cccc(N2CCC[C@@H](Nc3cc(N4CCOCC4)ncn3)C2)c1` [I-9] it is 100 to 200 µM. Same read-out and setting: with `CC(C)Cn1cc(N2CCC[C@@H](Nc3cc(N4CCOCC4)ccn3)C2)cn1` [I-421] the figure was more than 200 µM; with `NCCOCCOCCOCCOCCOCCOCCC1CCN(c2ccnc(N3CC[C@@H]4[C@H]3CCCN4c3cccc(F)c3)c2)CC1` [I-661], less than 10 µM; with `C[C@@H]1C[C@@H](Nc2cc(N3CCOCC3)ncn2)CN(c2cccc(F)c2)C1` [I-177], more than 200 µM. On the same count and under the same terms, the figure for `NC(=O)OCc1cccc(N2CCC[C@@H]3[C@H]2CCN3c2cc(N3CCCCC3)ccn2)c1` [I-955] is 10 to 100 µM; for `C=CC(=O)Nc1ccc(-c2n[nH]cc2C(=O)N[C@@H](CC(N)=O)c2cccc(Cl)c2)cc1` [I-474] it is more than 200 µM. With `COCCOCC[C@@H]1CCCN(c2ccnc(N3CC[C@@H]4[C@H]3CCCN4c3cccc(F)c3)c2)C1` [I-704], the Kd is more than 200 µM. On the same count and under the same terms, with `NC(=O)C[C@H](NC(=O)c1c[nH]nc1-c1ccccc1O)c1cccc(Cl)c1` [I-229] the figure was more than 200 µM; with `Fc1cccc(N2CC(Nc3cc(N4CCOCC4)ccn3)C2)c1` [I-199], more than 200 µM; with `N#Cc1ccc(-c2[nH]ncc2C(=O)N[C@@H](CC(N)=O)c2cccc(Cl)c2)cc1` [I-128], 10 to 100 µM.

Consider `Fc1cccc(N2CCC[C@@H](Cc3cc(N4CCOCC4)[nH]n3)C2)c1` [I-631], for which the Kd was more than 200 µM. Same read-out and setting: with `Nc1cc(N[C@@H]2CCCN(c3cccc(F)c3)C2)cc(N2CCOCC2)c1` [I-538] the figure was less than 10 µM; with `Fc1cccc(N2CCC[C@@H](Nc3cc(N4CCOCC4)cnn3)C2)c1` [I-20], more than 200 µM; with `C[C@@H](C(N)=O)[C@H](NC(=O)c1c[nH]nc1-c1ccccc1F)c1cccc(Cl)c1` [I-211], more than 200 µM. On the same count and under the same terms, the figure for `NS(=O)(=O)CCc1cccc(N2CCC[C@H]3[C@@H]2CCN3c2cc(N3CCCCC3)ccn2)c1` [I-964] is less than 10 µM; for `NC(=O)C[C@H](NC(=O)c1cn[nH]c1-c1cc(CC(=O)O)ccc1F)c1cccc(Cl)c1` [I-285] it is 100 to 200 µM; for `Cc1ccc(N2CCC[C@@H](Nc3cc(N4CCOCC4)ncn3)C2)cc1` [I-8] it is 100 to 200 µM.

As for `Cc1sc2c(c1C)C(c1ccc(Cl)cc1)=N[C@@H](CC(=O)NCCOCCOCCOCCOCC(=O)c1[nH]cc(C(=O)N[C@@H](CC(N)=O)c3cccc(Cl)c3)c1-c1ccccc1F)c1nnc(C)n1-2` [I-896], the Kd was less than 10 µM. The same measure, in the same setting: with `Nc1ccc(F)cc1N1CCC[C@@H]2[C@H]1CCN2c1cc(N2CCCCC2)ccn1` [I-811] the figure was less than 10 µM. `Fc1cccc(N2CCC[C@@H]3[C@H]2CCCN3c2cc(N3CCCCC3)ccn2)c1` [I-703]: the Kd is more than 200 µM. Still for that read-out and setting: with `Fc1cccc(N2CC(Nc3cc(N4CCOCC4)ncn3)C2)c1` [I-218] the figure was more than 200 µM; with `C=CC(=O)N1CCc2[nH]nc(C(=O)N[C@@H](CC(N)=O)c3cccc(Cl)c3)c2C1` [I-300], more than 200 µM. Still for that read-out and setting: with `NC(=O)C[C@H](NC(=O)c1cn(CC2CC2)nc1-c1ccccc1F)c1cccc(Cl)c1` [I-137] the figure was 10 to 100 µM; with `COc1ccc(-c2ccncc2)cc1N1CCC[C@@H](Nc2cc(N3CCOCC3)ccn2)C1` [I-698], 10 to 100 µM. On the same count and under the same terms, the figure for `C[C@H]1CCCN(c2ccnc(N[C@@H]3CCCN(c4cccc(F)c4)C3)c2)C1` [I-570] is 10 to 100 µM.

The assay is the same for the next values; noted with them: DCAF1-3 SPR (KD), 25 °C.
Regarding `NC(=O)OCc1cc(F)cc(N2CCC[C@H]3[C@@H]2CCN3c2cc(N3CC4CC(C4)C3)ccn2)c1` [I-1035, 3-((3aS,7aS)-1-(4-(3-azabicyclo[3.1.1]heptan-3-yl)pyridin-2-yl)octahydro-4H-pyrrolo[3,2-b]pyridin-4-yl)-5-fluorobenzyl carbamate], the Kd was less than 10 µM. Still for that read-out and setting: with `Fc1cccc(N2CCC[C@@H](Nc3cc(N4CCOCC4)ccn3)C2)c1` [I-29, (R)—N—(I-(3-fluorophenyl)piperidin-3-yl)-4-morpholinopyridin-2-amine] the figure was 10 to 100 µM.
